Assay results published in patent US4434172A, “2-Substituted-phenyl-5-alkylthiazolidine-4-one” (priority 1980, dated 1984).

tested on: peptic ulcer due to pyloric ligation; test: Effect on peptic ulcer due to pyloric ligation; format: in vivo, male rats; settings: 100 mg/kg, intraperitoneal, 15 hours after pyloric ligation; control 41.1
Method: (1) Effect on peptic ulcer due to pyloric ligation
Six groups (10 animals per group) of male rats weighting 180 to 200 g were subjected to ligation of their pylori under ether-anesthesia after fasting for 48 hours according to the method of Shay et al. (refer to Gastroenterology, 5, page 43 (1945)).
Just after subjecting to ligation, each of the present compound suspended in an aqueous physiological saline solution was intraperitoneally administered to each rat, the control being poured to with an aqueous physiological saline solution. Then, after 15 hours of fasting without taking water, the rats were sacrificed with ether and their stomachs were removed to examine under a microscope for anatomy. The length and width of the thus-formed ulcer in the stomach were determined and expressed by the product (mm^2), and the total sum of the products was represented as the ulcer coefficient.

SMILES | Ulcer coefficient [mm^2]
COc1ccc(C2NC(=O)C(C)S2)cc1 (stereo not shown) [Compound 4, 2-(4-methoxyphenyl)-5-methylthiazolidine-4-one] | 4.1
COc1ccc(C2NC(=O)C(C)S2)cc1OC (stereo not shown) [Compound 2, 2-(3,4-dimethoxyphenyl)-5-methylthiazolidine-4-one] | 6.5
CC(C)=CCCC(C)=CCCC(C)=CCCC(=O)OCC=C(C)CCC=C(C)C [gefarnate, 3,7dimethyl-2,6-octadienyl 5,9,13trimethyl-4,8,12-tetradecatrienoate, reference compound] | 36.1
COc1ccccc1C1NC(=O)C(C)S1 (stereo not shown) [Compound 3, 2-(2-methoxyphenyl)-5-methylthiazolidine-4-one] | 3.6
COc1cc(C2NC(=O)C(C)S2)cc(OC)c1OC (stereo not shown) [Compound 1, 2-(3,4,5-trimethoxyphenyl)-5-methylthiazolidine-4-one] | 7.2

same assay, conditions: 100 mg/kg, intraperitoneal, versus control

SMILES | Rate of suppression of ulcer
COc1ccc(C2NC(=O)C(C)S2)cc1 (stereo not shown) [Compound 4, 2-(4-methoxyphenyl)-5-methylthiazolidine-4-one] | 90.0%
COc1ccc(C2NC(=O)C(C)S2)cc1OC (stereo not shown) [Compound 2, 2-(3,4-dimethoxyphenyl)-5-methylthiazolidine-4-one] | 84.2%
CC(C)=CCCC(C)=CCCC(C)=CCCC(=O)OCC=C(C)CCC=C(C)C [gefarnate, 3,7dimethyl-2,6-octadienyl 5,9,13trimethyl-4,8,12-tetradecatrienoate, reference compound] | about 12%
COc1ccccc1C1NC(=O)C(C)S1 (stereo not shown) [Compound 3, 2-(2-methoxyphenyl)-5-methylthiazolidine-4-one] | 91.2%
COc1cc(C2NC(=O)C(C)S2)cc(OC)c1OC (stereo not shown) [Compound 1, 2-(3,4,5-trimethoxyphenyl)-5-methylthiazolidine-4-one] | 82.5%

same assay, conditions: 100 mg/kg, intraperitoneal, versus control; listed as Positive control

SMILES | Rate of suppression of ulcer [%]
CC(C)=CCCC(C)=CCCC(C)=CCCC(=O)OCC=C(C)CCC=C(C)C [gefarnate, 3,7dimethyl-2,6-octadienyl 5,9,13trimethyl-4,8,12-tetradecatrienoate, reference compound] | 12.2

tested on: peptic ulcer due to acetic acid; test: Effect on peptic ulcer due to acetic acid (duodenal); format: in vivo, male rats; settings: 100 mg/kg, oral, 3 times a day for 10 days from third day of operation; control 8.0
Excerpt: The inventors of the present invention, taking into account of these situations, added to the above-mentioned method of evaluation the effect of accelerating the cure of the peptic ulcer by orally administering the present compound and a commercialized anti-peptic ulcer medicine, respectivey to rats to which duodenal peptic ulcer due to acetic acid (refer to Okabe, 1971) considered to be most closely resembling to human peptic ulcer has been artificially formed.
(2) Effect on peptic ulcer due to acetic acid
Following the method of Okabe et al (refer to Amer. J. Dig. Dis., 16, […], 6 groups (15 animals per group) of male rats weighing 240 to 260 g were subjected to laparotomy under ether anesthesia in which a metal circular frame was placed on the serosa at a distance of 5 to 7 mm from the duodenal pylorus, 0.06 ml of glacial acetic acid was poured into the frame. After 30 seconds, the liquid containing the acetic acid was removed and then the frame was removed. The test compound suspended in an aqueous physiological saline solution was orally administered to the rat 3 times a day from the third day of the operation for consecutive 10 days. After the administration was over, the rats were sacrificed with ether, and their duodenum was removed to observe under a microscope for anatomy. The length and width of the thus-formed ulcer were measured and their product (expressed with mm^2) was recorded as the ulcer coefficient.

SMILES | coefficient (ulcer coefficient) [mm^2]
COc1ccc(C2NC(=O)C(C)S2)cc1 (stereo not shown) [Compound 4, 2-(4-methoxyphenyl)-5-methylthiazolidine-4-one] | 1.5
COc1ccc(C2NC(=O)C(C)S2)cc1OC (stereo not shown) [Compound 2, 2-(3,4-dimethoxyphenyl)-5-methylthiazolidine-4-one] | 2.4
CC(C)=CCCC(C)=CCCC(C)=CCCC(=O)OCC=C(C)CCC=C(C)C [gefarnate, 3,7dimethyl-2,6-octadienyl 5,9,13trimethyl-4,8,12-tetradecatrienoate, reference compound] | 6.4
COc1ccccc1C1NC(=O)C(C)S1 (stereo not shown) [Compound 3, 2-(2-methoxyphenyl)-5-methylthiazolidine-4-one] | 1.3
COc1cc(C2NC(=O)C(C)S2)cc(OC)c1OC (stereo not shown) [Compound 1, 2-(3,4,5-trimethoxyphenyl)-5-methylthiazolidine-4-one] | 2.8

same assay, conditions: 100 mg/kg, oral, 3 times a day for 10 days, versus control

SMILES | Rate of suppression of ulcer [%]
COc1ccc(C2NC(=O)C(C)S2)cc1 (stereo not shown) [Compound 4, 2-(4-methoxyphenyl)-5-methylthiazolidine-4-one] | 81.3
COc1ccc(C2NC(=O)C(C)S2)cc1OC (stereo not shown) [Compound 2, 2-(3,4-dimethoxyphenyl)-5-methylthiazolidine-4-one] | 70.0
CC(C)=CCCC(C)=CCCC(C)=CCCC(=O)OCC=C(C)CCC=C(C)C [gefarnate, 3,7dimethyl-2,6-octadienyl 5,9,13trimethyl-4,8,12-tetradecatrienoate, reference compound] | 20.0
COc1ccccc1C1NC(=O)C(C)S1 (stereo not shown) [Compound 3, 2-(2-methoxyphenyl)-5-methylthiazolidine-4-one] | 83.8
COc1cc(C2NC(=O)C(C)S2)cc(OC)c1OC (stereo not shown) [Compound 1, 2-(3,4,5-trimethoxyphenyl)-5-methylthiazolidine-4-one] | 77.5

same assay, conditions: acetic acid ulcer

SMILES | curative effect / effectiveness (in words)
CC(C)=CCCC(C)=CCCC(C)=CCCC(=O)OCC=C(C)CCC=C(C)C [gefarnate, 3,7dimethyl-2,6-octadienyl 5,9,13trimethyl-4,8,12-tetradecatrienoate, reference compound] | only a slight effectiveness

tested on: not listed separately; test: Acute toxicity test, oral; design: species or system Female ICR-mice; settings: mouse, in vivo, mortality observed for a week, Litchfield-Wilcoxon
Method: Female ICR-mice of body weight of 20 to 24 g, 5 weeks after birth were used.
Eight animal per group were kept in a transparent polycage at room temperature of 23°±1° C., and RH of 60 to 70%.
After minutely pulverizing each one of the present compounds, the pulverized compound was suspended in an aqueous 5% sodium carboxymethylcellulose solution containing 20% of Tween-80. The aqueous suspension was forcibly orally administered by a metal stomach tube, the dose rate having been adjusted by changing the concentration of the present compound in the aqueous suspension.

SMILES | LD50 at 168 h [mg/kg]
COc1ccc(C2NC(=O)C(C)S2)cc1 (stereo not shown) [Compound 4, 2-(4-methoxyphenyl)-5-methylthiazolidine-4-one] | > 8000
COc1ccc(C2NC(=O)C(C)S2)cc1OC (stereo not shown) [Compound 2, 2-(3,4-dimethoxyphenyl)-5-methylthiazolidine-4-one] | > 8000
COc1ccccc1C1NC(=O)C(C)S1 (stereo not shown) [Compound 3, 2-(2-methoxyphenyl)-5-methylthiazolidine-4-one] | > 8000
COc1cc(C2NC(=O)C(C)S2)cc(OC)c1OC (stereo not shown) [Compound 1, 2-(3,4,5-trimethoxyphenyl)-5-methylthiazolidine-4-one] | 6400

tested on: peptic ulcer; test: not given; settings: commercialized medicine; cited from earlier work

SMILES | effect on ulcer-curing
CC1(C)[C@@H](OC(=O)CCC(=O)O)CC[C@]2(C)[C@H]3C(=O)C=C4[C@@H]5C[C@@](C)(C(=O)O)CC[C@]5(C)CC[C@@]4(C)[C@]3(C)CC[C@@H]12 [carbenoxolone] | excellent accelerating effect on the ulcer-curing

same assay, conditions: in vivo; cited from earlier work

SMILES | side effects
CC1(C)[C@@H](OC(=O)CCC(=O)O)CC[C@]2(C)[C@H]3C(=O)C=C4[C@@H]5C[C@@](C)(C(=O)O)CC[C@]5(C)CC[C@@]4(C)[C@]3(C)CC[C@@H]12 [carbenoxolone] | aldosterone-like side effects to cause hypertension and weakening of muscular function
